Measurements from patent publication US12251411B2, “Methods of treating endometrial cancer using hemp extract” (Ecofibre USA Inc., priority 2021, dated 2025).
Read-outs that look alike come from different tables or passages of the source.

Experiments:
[1] = system: endometrial cancer; experiment: Case of a patient with stage IV chemoresistant metastatic endometrial cancer (PET/CT follow up)
From the text: Soon after the experiments detailed above a person came to us. They were diagnosed with endometrial cancer after presenting with significant pain and discomfort. They had already undergone a total hysterectomy and bilateral salpingo-oophorectomy followed by five rounds of chemotherapy. Each of the first five rounds of chemotherapy was a combined chemotherapy with Paclitaxil/Carboplatin.
See, Tables 3 and 4, below. […] As such, […] began standard protocol GemCap treatment in combination with a regime of 30 mg of BSHE twice daily via oral mucosal delivery and 75 mg of FSHE once daily via intravaginal delivery.

[2] = system: patient derived organoids; experiment: Calculated IC50 of various agents on organoids derived from the chemoresistant patient (PD3D cell culture); format: cell-based, human; conditions: organoids of the chemoresistant stage IV patient
Method: The IC50 values were calculated from such tests. This value indicates the dosage at which 50% of the organoids were killed due to treatment.

[3] = cited from earlier work
[4] = system: patient derived organoids; format: cell-based, human; conditions: % of cells that died compared to control; organoids of the chemoresistant patient
Method: In addition to the agents listed above, several other drugs were tested to see if they influenced organoid growth. In this case, results are shown as the % of cells that died compared to control. […] This is consistent with the patient's actual lack of response to treatment with paclitaxel.

[5] = system: patient derived endometrial cancer organoids; experiment: Patient-derived endometrial cancer organoid viability: chemotherapeutic agent alone or with IC50 dose of cannabis extract; conditions: patient 4
Method: To perform these experiments, we used cells from patient 4 (see, e.g., FIGS. 7A and 7C) to test grade 2 endometrial cancer and cells from patient 12 (see, e.g., FIGS. 7B-7D) to test grade 3 endometrial cancer. […] Methods concerning producing organoids from human tissue samples are provided in the Methods section at the end of this document.
Individual patient cell organoids were cultured separately in different plates.
The same IC50 dose was given with each incremental dose of chemotherapeutic agent.

[6] = oral formulations; cited from earlier work
[7] = before cannabis extract treatment

| Compound | Cmax ([3]; in vivo) [nM] | % Cell Death [4] | also measured |
| --- | --- | --- | --- |
| CCN1CCN(Cc2ccc(Nc3ncc(F)c(-c4cc(F)c5nc(C)n(C(C)C)c5c4)n3)nc2)CC1 [Abemaciclib] | – | – | adverse effects of the patient's earlier treatment ([1]; human, in vivo): severe adverse effects |
| C[C@H]1[C@H](OC(=O)CCC(=O)O)O[C@@H]2O[C@@]3(C)CC[C@H]4[C@H](C)CC[C@@H]1[C@@]24OO3 [Artesunate] | 8580 | – | IC50 ([2]; Homo sapiens): 38.4 µM |
| O=C1O[C@H]([C@@H](O)CO)C(O)=C1O [Ascorbic Acid] | 436000 | – | Calculated IC50 PD3D Cell Culture [2]: Not Reached |
| CO[C@H]1C(=O)[C@]2(C)[C@@H](OC)C[C@H]3OC[C@@]3(OC(C)=O)[C@H]2[C@H](OC(=O)c2ccccc2)[C@]2(O)C[C@H](OC(=O)[C@H](O)[C@@H](NC(=O)OC(C)(C)C)c3ccccc3)C(C)=C1C2(C)C [Cabazitaxel] | – | 37% | – |
| CCCCCOC(=O)Nc1nc(=O)n([C@@H]2O[C@H](C)[C@@H](O)[C@H]2O)cc1F [Capecitabine (5-FU)] | – | 61% | Calculated IC50 PD3D Cell Culture [2]: Not Reached |
| N.N.O=C([O-])C1(C(=O)[O-])CCC1.[Pt+2] [Carboplatin] | – | 30% | reduction of viable organoids ([5]; carboplatin alone 50 μM/mL): about 50%; decrease in viability as compared to 50 μM/mL ([5]; carboplatin alone 100 μM/mL): 2%; decrease in viability from that achieved at 50 μM/mL ([5]; carboplatin alone 250 μM/mL): 17%; organoid viability ([5]; carboplatin alone 250 μM/mL): about 32% |
| N.N.[Cl][Pt][Cl] [Cisplatin] | 3620 | 36% | IC50 [2]: 5.05 µM |
| O=C(c1ccc(F)c(F)c1Nc1ccc(I)cc1F)N1CC(O)([C@@H]2CCCCN2)C1 [Cobimetinib] | – | – | Calculated IC50 PD3D Cell Culture [2]: Not Reached; Cmax [3]: 514 nM |
| COc1cc2c(c(OC)c1OC)-c1ccc(OC)c(=O)cc1[C@@H](NC(C)=O)CC2 [Colchicine] | 6 | – | – |
| C[C@@H](Oc1cc(-c2cnn(C3CCNCC3)c2)cnc1N)c1c(Cl)ccc(F)c1Cl [Crizotinib] | 230 | – | Calculated IC50 PD3D Cell Culture [2]: Not Reached |
| O=P1(N(CCCl)CCCl)NCCCO1 (centres unmarked) [Cyclosphosphamide] | – | 32% | – |
| CN(C)/N=N/c1[nH]cnc1C(N)=O [Dacarbazine] | – | 32% | – |
| O=C(O)C(Cl)Cl [Dichloracetate] | 330000 | – | Calculated IC50 PD3D Cell Culture [2]: Not Reached |
| CC(=O)O[C@@]12CO[C@@H]1C[C@H](O)[C@@]1(C)C(=O)[C@H](O)C3=C(C)[C@@H](OC(=O)[C@H](O)[C@@H](NC(=O)OC(C)(C)C)c4ccccc4)C[C@@](O)([C@@H](OC(=O)c4ccccc4)[C@H]21)C3(C)C [Docetaxel] | – | No Response | – |
| COc1cccc2c1C(=O)c1c(O)c3c(c(O)c1C2=O)C[C@@](O)(C(=O)CO)C[C@@H]3O[C@H]1C[C@H](N)[C@H](O)[C@H](C)O1 [Doxorubicin] | – | 39% | – |
| COc1cc([C@@H]2c3cc4c(cc3[C@@H](O[C@@H]3O[C@@H]5CO[C@@H](C)O[C@H]5[C@H](O)[C@H]3O)[C@H]3COC(=O)[C@H]23)OCO4)cc(OC)c1O [Etoposide] | – | 33% | IC50 ([2]; Homo sapiens, unit inferred): 87.3 µM; Cmax [3]: 33900 nM |
| Nc1ccn([C@@H]2O[C@H](CO)[C@@H](O)C2(F)F)c(=O)n1 [Gemcitabine] | – | 56% | – |
| N[C@@H](CCC(=O)N[C@@H](CS)C(=O)NCC(=O)O)C(=O)O [Glutathione] | 150000 | – | Calculated IC50 PD3D Cell Culture [2]: Not Reached |
| CCN(CCO)CCCC(C)Nc1ccnc2cc(Cl)ccc12 (centres unmarked) [Hydroxychloroquine] | 120 | – | Calculated IC50 PD3D Cell Culture [2]: Not Reached |
| CCc1c2c(nc3ccc(OC(=O)N4CCC(N5CCCCC5)CC4)cc13)-c1cc3c(c(=O)n1C2)COC(=O)[C@]3(O)CC [Irinotecan] | – | 51% | – |
| COc1cc2nccc(Oc3ccc(NC(=O)NC4CC4)c(Cl)c3)c2cc1C(N)=O [Lenvatinib] | – | – | Calculated IC50 PD3D Cell Culture [2]: Not Reached; Cmax [3]: 1000 nM |
| N[C@@H](Cc1ccc(N(CCCl)CCCl)cc1)C(=O)O [Melphalan] | – | 40% | – |
| CN(C)C(=N)N=C(N)N [Metformin] | 10800 | – | Calculated IC50 PD3D Cell Culture [2]: Not Reached |
| O=C1c2c(O)ccc(O)c2C(=O)c2c(NCCNCCO)ccc(NCCNCCO)c21 [Mitoxantrone] | – | 50% | – |
| O=C(Nc1ccc([N+](=O)[O-])cc1Cl)c1cc(Cl)ccc1O [Niclosamide] | 310 | – | IC50 ([2]; Homo sapiens): 0.6 µM |

| Compound | Cmax ([3]; in vivo) [nM] | % Cell Death [4] | also measured |
| --- | --- | --- | --- |
| O=C(c1cc(Cc2n[nH]c(=O)c3ccccc23)ccc1F)N1CCN(C(=O)C2CC2)CC1 [Olaparib] | – | – | Calculated IC50 PD3D Cell Culture [2]: Not Reached; Cmax [3]: 17500 nM |
| Cc1[nH]c2ccccc2c1CCNCc1ccc(/C=C/C(=O)NO)cc1 [Panobinostat] | 60 | – | IC50 ([2]; Homo sapiens): 0.11 µM |
| Nc1nc2[nH]cc(CCc3ccc(C(=O)N[C@@H](CCC(=O)O)C(=O)O)cc3)c2c(=O)[nH]1 [Pemetrexed] | – | No Response | Calculated IC50 PD3D Cell Culture [2]: Not Reached; Cmax [3]: 291000 nM |
| Nc1cccc2c1C(=O)N(C1CCC(=O)NC1=O)C2=O (centres unmarked) [Pomalidomide] | 270 | – | Calculated IC50 PD3D Cell Culture [2]: Not Reached |
| Cc1ccc(C(=O)Nc2ccc(CN3CCN(C)CC3)c(C(F)(F)F)c2)cc1C#Cc1cnc2cccnn12 [Ponatinib] | – | – | Cmax [3]: 137 nM |
| CC(C)NCC(O)COc1cccc2ccccc12 (centres unmarked) [Propranolol] | – | – | Cmax [3]: 102 nM |
| N#CC[C@H](C1CCCC1)n1cc(-c2ncnc3[nH]ccc23)cn1 [Ruxolitinib] | – | – | Cmax [3]: 587 nM |
| CO[C@@H](C)Cn1c(=O)n(C)c2cnc3ccc(-c4cncc(C(C)(C)O)c4)cc3c21 [Samotolisib] | 600 | – | IC50 ([2]; Homo sapiens): 0.87 µM |
| CCN(CC)CCNC(=O)c1c(C)[nH]c(/C=C2\C(=O)Nc3ccc(F)cc32)c1C [Sunitnib] | 90 | – | Calculated IC50 PD3D Cell Culture [2]: Not Reached |
| CCCCCc1cc(O)c2c(c1)OC(C)(C)[C@@H]1CCC(C)=C[C@@H]21 [THC, Δ^9-tetrahydrocannabinol] | – | – | onset to reach peak plasma concentration [6]: ~120 min |
| Cn1nnc2c(C(N)=O)ncn2c1=O [Temozolomide] | 37600 | 40% | IC50 ([2]; Homo sapiens): 106 µM |
| COc1cc2c(cc1O)CCN[C@]21CS[C@@H]2c3c(OC(C)=O)c(C)c4c(c3[C@H](COC1=O)N1[C@@H]2[C@H]2c3c(cc(C)c(OC)c3O)C[C@@H]([C@@H]1O)N2C)OCO4 [Trabectedine] | – | 32% | – |
| CC[C@]1(O)C[C@@H]2CN(CCc3c([nH]c4ccccc34)[C@@](C(=O)OC)(c3cc4c(cc3OC)N(C)[C@H]3[C@@](O)(C(=O)OC)[C@H](OC(C)=O)[C@]5(CC)C=CCN6CC[C@]43[C@@H]65)C2)C1 [Vinblastine] | – | 38% | – |
| CCC1=C[C@@H]2CN(C1)Cc1c([nH]c3ccccc13)[C@@](C(=O)OC)(c1cc3c(cc1OC)N(C)[C@H]1[C@@](O)(C(=O)OC)[C@H](OC(C)=O)[C@]4(CC)C=CCN5CC[C@]31[C@@H]54)C2 [Vinorelbine] | – | 45% | – |
| COc1cccc2c1C(=O)c1c(O)c3c(c(O)c1C2=O)C[C@@](O)(C(=O)CO)C[C@@H]3O[C@H]1C[C@H](N)[C@@H](O)[C@H](C)O1 [epirubicin] | – | No Response | – |
| C=C1C[C@@H]2CC[C@@]34C[C@H]5O[C@H]6[C@@H](O3)[C@H]3O[C@H](CC[C@@H]3O[C@H]6[C@H]5O4)CC(=O)C[C@@H]3[C@@H](OC)[C@@H](C[C@H](O)CN)O[C@H]3C[C@H]3O[C@@H](CC[C@@H]1O2)C[C@@H](C)C3=C [eribulin] | – | No Response | – |
| O=P1(NCCCl)OCCCN1CCCl (centres unmarked) [ifosfamide] | – | No Response | – |
| CN(Cc1cnc2nc(N)nc(N)c2n1)c1ccc(C(=O)N[C@@H](CCC(=O)O)C(=O)O)cc1 [methotrexate] | – | No Response | – |
| CO[C@@]12[C@H](COC(N)=O)C3=C(C(=O)C(C)=C(N)C3=O)N1C[C@@H]1N[C@@H]12 [mitomycin] | – | No Response | – |
| O=C1[O][Pt]2([NH][C@@H]3CCCC[C@H]3[NH]2)[O]C1=O [oxaliplatin] | – | No Response | – |
| CC[C@]1(O)C[C@H]2CN(CCc3c([nH]c4ccccc34)[C@@](C(=O)OC)(c3cc4c(cc3OC)N(C=O)[C@H]3[C@@](O)(C(=O)OC)[C@H](OC(C)=O)[C@]5(CC)C=CCN6CC[C@]43[C@@H]65)C2)C1 [vincristine] | – | No Response | – |
| Atezolizumab | – | – | adverse effects of the patient's earlier treatment [1, 7]: severe adverse effects; outcome of the patient's earlier treatment [1, 7]: failed |
| Bevacizumab | 920 | – | Calculated IC50 PD3D Cell Culture [2]: Not Reached |
| Bleomycin | – | 53% | – |
| Paclitaxil/Carboplatin | – | – | outcome of the patient's earlier treatment [1, 7]: ineffective |
